Source: PubChem BioAssay AID1259407 (Chemical Carcinogenesis Research Information System (CCRIS), 2018)
Activity calls are given as the source filed them. The rule behind the calls is not given here.

Tested on: CCRIS mutagenicity, Ames/micronucleus/aberration tests
Experiment: CCRIS mutagenicity studies
[1] = Test System: AMES SALMONELLA TYPHIMURIUM, Strain/Indicator: TA98, Metabolic Activation: NONE, Method: STANDARD PLATE
[2] = Test System: AMES SALMONELLA TYPHIMURIUM, Strain/Indicator: TA98, Metabolic Activation: RAT, LIVER, S-9, AROCLOR 1254, Method: STANDARD PLATE
[3] = Test System: AMES SALMONELLA TYPHIMURIUM, Strain/Indicator: TA100, Metabolic Activation: RAT, LIVER, S-9, AROCLOR 1254, Method: STANDARD PLATE
[4] = Test System: AMES SALMONELLA TYPHIMURIUM, Strain/Indicator: TA1535, Metabolic Activation: RAT, LIVER, S-9, AROCLOR 1254, Method: STANDARD PLATE
[5] = Test System: AMES SALMONELLA TYPHIMURIUM, Strain/Indicator: TA1537, Metabolic Activation: RAT, LIVER, S-9, AROCLOR 1254, Method: STANDARD PLATE
[6] = Test System: AMES SALMONELLA TYPHIMURIUM, Strain/Indicator: TA1538, Metabolic Activation: RAT, LIVER, S-9, AROCLOR 1254, Method: STANDARD PLATE

SMILES | mutagenic call (Test System: AMES SALMONELLA TYPHIMURIUM, Strain/Indicator: TA98, Metabolic Activation: HAMSTER, LIVER, S-9, AROCLOR 1254, Method: STANDARD PLATE) | mutagenic call [1] | mutagenic call [2] | mutagenic call (Test System: AMES SALMONELLA TYPHIMURIUM, Strain/Indicator: TA100, Metabolic Activation: HAMSTER, LIVER, S-9, AROCLOR 1254, Method: STANDARD PLATE) | mutagenic call (Test System: AMES SALMONELLA TYPHIMURIUM, Strain/Indicator: TA100, Metabolic Activation: NONE, Method: STANDARD PLATE) | mutagenic call [3] | mutagenic call (Test System: AMES SALMONELLA TYPHIMURIUM, Strain/Indicator: TA1535, Metabolic Activation: HAMSTER, LIVER, S-9, AROCLOR 1254, Method: STANDARD PLATE) | mutagenic call (Test System: AMES SALMONELLA TYPHIMURIUM, Strain/Indicator: TA1535, Metabolic Activation: NONE, Method: STANDARD PLATE) | mutagenic call [4] | mutagenic call (Test System: AMES SALMONELLA TYPHIMURIUM, Strain/Indicator: TA1537, Metabolic Activation: HAMSTER, LIVER, S-9, AROCLOR 1254, Method: STANDARD PLATE) | mutagenic call (Test System: AMES SALMONELLA TYPHIMURIUM, Strain/Indicator: TA1537, Metabolic Activation: NONE, Method: STANDARD PLATE) | mutagenic call [5] | mutagenic call (Test System: AMES SALMONELLA TYPHIMURIUM, Strain/Indicator: TA1538, Metabolic Activation: HAMSTER, LIVER, S-9, AROCLOR 1254, Method: STANDARD PLATE) | mutagenic call (Test System: AMES SALMONELLA TYPHIMURIUM, Strain/Indicator: TA1538, Metabolic Activation: NONE, Method: STANDARD PLATE) | mutagenic call [6] | mutagenic call (Test System: MOUSE LYMPHOMA, Strain/Indicator: L5178Y (TK+/TK-), Metabolic Activation: NONE, Method: SUSPENSION/PLATE) | mutagenic call (Test System: MOUSE LYMPHOMA, Strain/Indicator: L5178Y (TK+/TK-), Metabolic Activation: RAT, LIVER, S-9, AROCLOR 1254, Method: SUSPENSION/PLATE) | mutagenic call (Test System: E. COLI B, Strain/Indicator: H/R30R, Metabolic Activation: NONE) | mutagenic call (Test System: E. COLI B, Strain/Indicator: HS30R, Metabolic Activation: NONE) | mutagenic call (Test System: AMES SALMONELLA TYPHIMURIUM, Strain/Indicator: TA98, Metabolic Activation: RAT, LIVER, S-9, AROCLOR 1254 (0.127 OR 1.27 MG S-9 PROTEIN), Method: STANDARD PLATE)
O=[N+]([O-])/C(Br)=C\c1ccccc1 | inactive; negative | inactive; negative | inactive; negative | inactive; negative | inactive; negative | inactive; negative | inactive; negative | inactive; negative | inactive; negative | inactive; negative | inactive; negative | inactive; negative | inactive; negative | inactive; negative | inactive; negative | inactive; negative. reevaluation of results: negative | inactive; negative. reevaluation of results: negative | – | – | –
CC(O)CN(N=O)C(N)=O (stereo unspecified) | – | – | – | – | – | – | – | – | – | – | – | – | – | – | – | – | – | active; positive | active; positive | –
C1=Cc2cc3c4ccccc4ccc3c3cccc1c23 | – | inactive; negative | active; positive | – | – | active; positive | – | – | inactive; negative | – | – | active; positive | – | – | active; positive | – | – | – | – | active; positive
